Source: ChEMBL document CHEMBL2057064, “Activation of human RNase L by 2'- and 5'-O-methylphosphonate-modified oligoadenylates” (Bioorg Med Chem Lett, 2012)
Activity calls are given as the source filed them. No cut-off for these calls is given here.

Target: T1, 2-5A-dependent ribonuclease (Homo sapiens) (UniProt Q05823)
T1 sequence (whole entry): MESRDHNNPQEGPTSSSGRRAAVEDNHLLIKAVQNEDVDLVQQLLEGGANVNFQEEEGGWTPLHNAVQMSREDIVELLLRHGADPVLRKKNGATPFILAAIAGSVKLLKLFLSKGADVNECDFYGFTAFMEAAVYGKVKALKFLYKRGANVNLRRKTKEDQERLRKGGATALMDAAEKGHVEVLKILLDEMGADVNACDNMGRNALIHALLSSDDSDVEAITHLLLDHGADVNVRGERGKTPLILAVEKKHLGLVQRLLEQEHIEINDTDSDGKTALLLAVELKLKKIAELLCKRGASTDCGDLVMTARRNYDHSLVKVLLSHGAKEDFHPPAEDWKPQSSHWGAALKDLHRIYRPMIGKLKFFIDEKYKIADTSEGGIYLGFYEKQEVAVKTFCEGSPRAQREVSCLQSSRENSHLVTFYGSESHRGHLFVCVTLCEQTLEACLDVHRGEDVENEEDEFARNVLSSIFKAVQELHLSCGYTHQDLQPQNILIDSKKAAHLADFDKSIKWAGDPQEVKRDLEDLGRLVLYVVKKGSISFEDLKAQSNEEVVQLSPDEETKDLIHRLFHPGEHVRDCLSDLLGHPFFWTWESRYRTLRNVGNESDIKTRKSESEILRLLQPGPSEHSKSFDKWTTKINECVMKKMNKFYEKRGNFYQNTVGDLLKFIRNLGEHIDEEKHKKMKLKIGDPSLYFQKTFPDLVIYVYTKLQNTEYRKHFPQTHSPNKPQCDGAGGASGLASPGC
Assay: Antagonist activity at human RNase L expressed in Escherichia coli BL21 (DE3) cells assessed as RNA cleavage using Cy5-C11-rUU-C7-BHQ2 as substrate by FRET assay in presence of natural activator pAAAA
Format: functional

inhibition, inactive:
Nc1ncnc2c1ncn2[C@@H]1O[C@H](COCP(=O)(O)O[C@@H]2[C@@H](O)[C@@H](COCP(=O)(O)O[C@@H]3[C@H](O)[C@@H](COP(=O)(O)O[C@@H]4[C@H](O)[C@@H](COP(=O)(O)O)O[C@H]4n4cnc5c(N)ncnc54)O[C@H]3n3cnc4c(N)ncnc43)O[C@H]2n2cnc3c(N)ncnc32)[C@H](O)[C@H]1O, Nc1ncnc2c1ncn2[C@@H]1O[C@H](COCP(=O)(O)O[C@@H]2[C@H](O)[C@@H](COP(=O)(O)O[C@@H]3[C@H](O)[C@@H](COCP(=O)(O)O[C@@H]4[C@H](O)[C@@H](COP(=O)(O)O)O[C@H]4n4cnc5c(N)ncnc54)O[C@H]3n3cnc4c(N)ncnc43)O[C@H]2n2cnc3c(N)ncnc32)[C@@H](O)[C@H]1O, Nc1ncnc2c1ncn2[C@@H]1O[C@H](COP(=O)(O)CO[C@@H]2[C@H](O)[C@@H](COP(=O)(O)O[C@@H]3[C@H](O)[C@@H](COP(=O)(O)CO[C@@H]4[C@H](O)[C@@H](COP(=O)(O)O)O[C@H]4n4cnc5c(N)ncnc54)O[C@H]3n3cnc4c(N)ncnc43)O[C@H]2n2cnc3c(N)ncnc32)[C@@H](O)[C@H]1O, Nc1ncnc2c1ncn2[C@@H]1O[C@H](COCP(=O)(O)O[C@H]2[C@H](O)[C@@H](COCP(=O)(O)O[C@@H]3[C@H](O)[C@@H](COP(=O)(O)O[C@H]4[C@H](O)[C@@H](COCP(=O)(O)O)O[C@H]4n4cnc5c(N)ncnc54)O[C@H]3n3cnc4c(N)ncnc43)O[C@H]2n2cnc3c(N)ncnc32)[C@@H](O)[C@@H]1O, Nc1ncnc2c1ncn2[C@@H]1O[C@H](COP(=O)(O)O[C@H]2[C@H](O)[C@@H](COCP(=O)(O)O[C@H]3[C@H](O)[C@@H](COCP(=O)(O)O[C@@H]4[C@H](O)[C@@H](COP(=O)(O)O)O[C@H]4n4cnc5c(N)ncnc54)O[C@H]3n3cnc4c(N)ncnc43)O[C@H]2n2cnc3c(N)ncnc32)[C@@H](O)[C@H]1O, Nc1ncnc2c1ncn2[C@@H]1O[C@H](COP(=O)(O)O[C@@H]2[C@H](O)[C@@H](COCP(=O)(O)O[C@@H]3[C@H](O)[C@@H](COCP(=O)(O)O[C@@H]4[C@H](O)[C@@H](COP(=O)(O)O)O[C@H]4n4cnc5c(N)ncnc54)O[C@H]3n3cnc4c(N)ncnc43)O[C@H]2n2cnc3c(N)ncnc32)[C@@H](O)[C@H]1O, Nc1ncnc2c1ncn2[C@@H]1O[C@H](COP(=O)(O)O[C@@H]2[C@H](O)[C@@H](COP(=O)(O)CO[C@@H]3[C@H](O)[C@@H](COP(=O)(O)CO[C@@H]4[C@H](O)[C@@H](COP(=O)(O)O)O[C@H]4n4cnc5c(N)ncnc54)O[C@H]3n3cnc4c(N)ncnc43)O[C@H]2n2cnc3c(N)ncnc32)[C@@H](O)[C@H]1O, Nc1ncnc2c1ncn2[C@@H]1O[C@H](COP(=O)(O)O[C@@H]2[C@H](O)[C@@H](COP(=O)(O)CO[C@@H]3[C@@H](O)[C@@H](COP(=O)(O)CO[C@@H]4[C@@H](O)[C@@H](COP(=O)(O)O)O[C@H]4n4cnc5c(N)ncnc54)O[C@H]3n3cnc4c(N)ncnc43)O[C@H]2n2cnc3c(N)ncnc32)[C@@H](O)[C@H]1O, Nc1ncnc2c1ncn2[C@@H]1O[C@H](COCP(=O)(O)O[C@@H]2[C@H](O)[C@@H](COCP(=O)(O)O[C@@H]3[C@H](O)[C@@H](COCP(=O)(O)O[C@@H]4[C@H](O)[C@@H](COCP(=O)(O)O)O[C@H]4n4cnc5c(N)ncnc54)O[C@H]3n3cnc4c(N)ncnc43)O[C@H]2n2cnc3c(N)ncnc32)[C@@H](O)[C@H]1O, Nc1ncnc2c1ncn2[C@@H]1O[C@H](COCP(=O)(O)O[C@@H]2[C@H](O)[C@@H](COP(=O)(O)O[C@@H]3[C@@H](O)[C@@H](COCP(=O)(O)O[C@@H]4[C@@H](O)[C@@H](COCP(=O)(O)O)O[C@H]4n4cnc5c(N)ncnc54)O[C@H]3n3cnc4c(N)ncnc43)O[C@H]2n2cnc3c(N)ncnc32)[C@H](O)[C@H]1O, Nc1ncnc2c1ncn2[C@@H]1O[C@H](COCP(=O)(O)O[C@@H]2[C@H](O)[C@@H](COP(=O)(O)O[C@@H]3[C@H](O)[C@@H](COP(=O)(O)O[C@@H]4[C@@H](O)[C@@H](COCP(=O)(O)O)O[C@H]4n4cnc5c(N)ncnc54)O[C@H]3n3cnc4c(N)ncnc43)O[C@H]2n2cnc3c(N)ncnc32)[C@H](O)[C@H]1O, Nc1ncnc2c1ncn2[C@@H]1O[C@H](COP(=O)(O)CO[C@@H]2[C@@H](O)[C@@H](COP(=O)(O)O[C@@H]3[C@H](O)[C@@H](COP(=O)(O)CO[C@@H]4[C@@H](O)[C@@H](COP(=O)(O)O)O[C@H]4n4cnc5c(N)ncnc54)O[C@H]3n3cnc4c(N)ncnc43)O[C@H]2n2cnc3c(N)ncnc32)[C@@H](O)[C@H]1O, Nc1ncnc2c1ncn2[C@@H]1O[C@H](COP(=O)(O)O[C@@H]2[C@H](O)[C@@H](COCP(=O)(O)O[C@@H]3[C@H](O)[C@@H](COP(=O)(O)O[C@@H]4[C@H](O)[C@@H](COCP(=O)(O)O)O[C@H]4n4cnc5c(N)ncnc54)O[C@H]3n3cnc4c(N)ncnc43)O[C@H]2n2cnc3c(N)ncnc32)[C@@H](O)[C@H]1O, Nc1ncnc2c1ncn2[C@@H]1O[C@H](COCP(=O)(O)O[C@@H]2[C@@H](O)[C@@H](COCP(=O)(O)O[C@@H]3[C@@H](O)[C@@H](COCP(=O)(O)O[C@@H]4[C@H](O)[C@@H](COP(=O)(O)O)O[C@H]4n4cnc5c(N)ncnc54)O[C@H]3n3cnc4c(N)ncnc43)O[C@H]2n2cnc3c(N)ncnc32)[C@H](O)[C@H]1O, Nc1ncnc2c1ncn2[C@@H]1O[C@H](COCP(=O)(O)O[C@@H]2[C@H](O)[C@@H](COCP(=O)(O)O[C@@H]3[C@H](O)[C@@H](COP(=O)(O)O[C@@H]4[C@H](O)[C@@H](COCP(=O)(O)O)O[C@H]4n4cnc5c(N)ncnc54)O[C@H]3n3cnc4c(N)ncnc43)O[C@H]2n2cnc3c(N)ncnc32)[C@@H](O)[C@H]1O, Nc1ncnc2c1ncn2[C@@H]1O[C@H](COCP(=O)(O)O[C@@H]2[C@H](O)[C@@H](COP(=O)(O)O[C@@H]3[C@H](O)[C@@H](COP(=O)(O)O[C@@H]4[C@H](O)[C@@H](COCP(=O)(O)O)O[C@H]4n4cnc5c(N)ncnc54)O[C@H]3n3cnc4c(N)ncnc43)O[C@H]2n2cnc3c(N)ncnc32)[C@@H](O)[C@H]1O, Nc1ncnc2c1ncn2[C@@H]1O[C@H](COCP(=O)(O)O[C@@H]2[C@H](O)[C@@H](COP(=O)(O)O[C@@H]3[C@H](O)[C@@H](COCP(=O)(O)O[C@@H]4[C@H](O)[C@@H](COCP(=O)(O)O)O[C@H]4n4cnc5c(N)ncnc54)O[C@H]3n3cnc4c(N)ncnc43)O[C@H]2n2cnc3c(N)ncnc32)[C@@H](O)[C@H]1O, Nc1ncnc2c1ncn2[C@@H]1O[C@H](COCP(=O)(O)O[C@@H]2[C@H](O)[C@@H](COCP(=O)(O)O[C@@H]3[C@H](O)[C@@H](COP(=O)(O)O[C@@H]4[C@H](O)[C@@H](COP(=O)(O)O)O[C@H]4n4cnc5c(N)ncnc54)O[C@H]3n3cnc4c(N)ncnc43)O[C@H]2n2cnc3c(N)ncnc32)[C@@H](O)[C@H]1O, Nc1ncnc2c1ncn2[C@@H]1O[C@H](COP(=O)(O)O[C@@H]2[C@H](O)[C@@H](COP(=O)(O)O[C@@H]3[C@H](O)[C@@H](COCP(=O)(O)O[C@@H]4[C@H](O)[C@@H](COCP(=O)(O)O)O[C@H]4n4cnc5c(N)ncnc54)O[C@H]3n3cnc4c(N)ncnc43)O[C@H]2n2cnc3c(N)ncnc32)[C@@H](O)[C@H]1O, Nc1ncnc2c1ncn2[C@@H]1O[C@H](COP(=O)(O)O[C@@H]2[C@H](O)[C@@H](COP(=O)(O)O[C@H]3[C@H](O)[C@@H](COCP(=O)(O)O[C@H]4[C@H](O)[C@@H](COCP(=O)(O)O)O[C@H]4n4cnc5c(N)ncnc54)O[C@H]3n3cnc4c(N)ncnc43)O[C@H]2n2cnc3c(N)ncnc32)[C@@H](O)[C@H]1O, Nc1ncnc2c1ncn2[C@@H]1O[C@H](COCP(=O)(O)O[C@@H]2[C@@H](O)[C@@H](COCP(=O)(O)O[C@@H]3[C@H](O)[C@@H](COP(=O)(O)O[C@@H]4[C@@H](O)[C@@H](COCP(=O)(O)O)O[C@H]4n4cnc5c(N)ncnc54)O[C@H]3n3cnc4c(N)ncnc43)O[C@H]2n2cnc3c(N)ncnc32)[C@H](O)[C@H]1O, Nc1ncnc2c1ncn2[C@@H]1O[C@H](COCP(=O)(O)O[C@H]2[C@H](O)[C@@H](COCP(=O)(O)O[C@H]3[C@H](O)[C@@H](COCP(=O)(O)O[C@@H]4[C@H](O)[C@@H](COP(=O)(O)O)O[C@H]4n4cnc5c(N)ncnc54)O[C@H]3n3cnc4c(N)ncnc43)O[C@H]2n2cnc3c(N)ncnc32)[C@@H](O)[C@@H]1O, Nc1ncnc2c1ncn2[C@@H]1O[C@H](COP(=O)(O)O[C@@H]2[C@@H](O)[C@@H](COCP(=O)(O)O[C@@H]3[C@@H](O)[C@@H](COCP(=O)(O)O[C@@H]4[C@H](O)[C@@H](COP(=O)(O)O)O[C@H]4n4cnc5c(N)ncnc54)O[C@H]3n3cnc4c(N)ncnc43)O[C@H]2n2cnc3c(N)ncnc32)[C@@H](O)[C@H]1O
